{"source": "patent US5422344A", "about": "“Method of treating retroviral infections in mammals” (The United States of America as represented by the …, priority 1990, dated 1995)", "key": {"HIV [1]": {"test_system": "HIV", "settings": "cited from earlier work"}, "HIV [2]": {"test_system": "HIV", "settings": "chronically infected cell lines; cited from earlier work"}, "H9 cells": {"test_system": "H9 cells", "assay": "Cell number, viability (trypan blue dye exclusion) and growth of H9 cells", "assay_type": "cell-based"}, "[3]": {"test_system": "HIV-IIIB (HIV-1) replication in H9 cells", "assay": "HIV replication (RT activity) in acute infection of H9 cells", "assay_type": "cell-based", "settings": "for effect on HIV replication: non-cytotoxic doses of topo II inhibitors added during HIV infection", "protocol": "HIV-Acute Infection of H9 Cells by HIV and Drug Treatment: One ml of culture supernatant of H9/HIV-IIIB cells (10^6 /ml) was used after centrifugation (200xg, 20 min) and filtration (0.45 μm) for infecting 10^5 H9 cells in the presence or absence of different levels of CPT, m-AMSA or VP-16. Control cells received equivalent volumes of DMSO. The cells were incubated for 1 h at 37° C., pelleted, washed and resuspended in fresh media. […] (1981) J. Virol. 38: 239-48.\nCPT Inhibition of HIV Replication Following Acute Infection of H9 Cells with HIV-IIIB. In order to determine appropriate concentrations of CPT which would permit cell viability and growth while inhibiting viral infection or replication, H9 cells were infected with HIV-IIIB as described above in the absence or presence of different CPT doses. The cells were incubated for 1 h at 37° C., pelleted, washed and resuspended in fresh media. Reverse transcriptase (RT) activity in the culture media was measured seven days after infection.\nSince CPT is an anticancer drug and a known topo I inhibitor, its effects on HIV replication were compared to those of other anticancer drugs which are known to inhibit the related topoisomerase II enzyme."}, "[4]": {"settings": "0.5 μM VP16, day 6 post-infect."}, "[5]": {"settings": "0.5 μM VP16, day 7 post-infect."}, "[6]": {"settings": "0.5 μM VP16, day 8 post-infect."}, "[7]": {"settings": "0.5 μM VP16, day 9 post-infect."}, "[8]": {"settings": "1.5 μM VP16, day 6 post-infect."}, "[9]": {"settings": "1.5 μM VP16, day 7 post-infect."}, "[10]": {"settings": "1.5 μM VP16, day 8 post-infect."}, "[11]": {"settings": "1.5 μM VP16, day 9 post-infect."}, "[12]": {"settings": "0.4 μM m-Amsa, day 6 post-infect."}, "[13]": {"settings": "0.4 μM m-Amsa, day 7 post-infect."}, "[14]": {"settings": "0.4 μM m-Amsa, day 8 post-infect."}, "[15]": {"settings": "0.4 μM m-Amsa, day 9 post-infect."}, "[16]": {"settings": "1 μM m-Amsa, day 6 post-infect."}, "[17]": {"settings": "1 μM m-Amsa, day 7 post-infect."}, "[18]": {"settings": "1 μM m-Amsa, day 8 post-infect."}, "[19]": {"settings": "1 μM m-Amsa, day 9 post-infect."}}, "note": "“Also recorded” adds a separate entry of the source.", "data": [{"compound": "Cc1cn(C2CC(N=[N+]=[N-])C(CO)O2)c(=O)[nH]c1=O", "note": "(stereo not shown) [AZT]", "values": [{"measurement": "block of HIV infection at cell surface or at the level of reverse transcriptase", "setting": "HIV [1]", "result": "known to block HIV infection"}]}, {"compound": "interferon α", "values": [{"measurement": "suppression of HIV expression", "setting": "HIV [2]", "result": "reported to suppress HIV expression in chronically infected cell lines"}]}, {"compound": "COc1cc(C2c3cc4c(cc3C(OC3OC5COC(C)OC5C(O)C3O)C3COC(=O)C23)OCO4)cc(OC)c1O", "note": "(stereo not shown) [VP-16]", "values": [{"measurement": "No. Cells", "setting": "H9 cells; [4]", "result": "1 × 10^6"}, {"measurement": "No. Cells", "setting": "H9 cells; [5]", "result": "1.6 × 10^6"}, {"measurement": "No. Cells", "setting": "H9 cells; [6]", "result": "2.4 × 10^6"}, {"measurement": "No. Cells", "setting": "H9 cells; [7]", "result": "3 × 10^6"}, {"measurement": "No. Cells", "setting": "H9 cells; [8]", "result": "1 × 10^6"}, {"measurement": "No. Cells", "setting": "H9 cells; [9]", "result": "2 × 10^6"}, {"measurement": "No. Cells", "setting": "H9 cells; [10]", "result": "2.4 × 10^6"}, {"measurement": "No. Cells", "setting": "H9 cells; [11]", "result": "4 × 10^6"}, {"measurement": "RT/Cell", "setting": "[3]; [4]", "result": 26283, "unit": "cpm/10^5 cells"}, {"measurement": "RT/Cell", "setting": "[3]; [5]", "result": 26143, "unit": "cpm/10^5 cells"}, {"measurement": "RT/Cell", "setting": "[3]; [6]", "result": 29158, "unit": "cpm/10^5 cells"}, {"measurement": "RT/Cell", "setting": "[3]; [7]", "result": 25183, "unit": "cpm/10^5 cells"}, {"measurement": "RT/Cell", "setting": "[3]; [8]", "result": 32242, "unit": "cpm/10^5 cells"}, {"measurement": "RT/Cell", "setting": "[3]; [9]", "result": 33626, "unit": "cpm/10^5 cells"}, {"measurement": "RT/Cell", "setting": "[3]; [10]", "result": 30675, "unit": "cpm/10^5 cells"}, {"measurement": "RT/Cell", "setting": "[3]; [11]", "result": 29194, "unit": "cpm/10^5 cells"}, {"measurement": "effect on HIV replication", "setting": "[3]", "result": "No effect on HIV replication was observed; also recorded: do not have any significant effect on HIV replication"}]}, {"compound": "COc1cc(NS(C)(=O)=O)ccc1Nc1c2ccccc2nc2ccccc12", "note": "[m-AMSA]", "values": [{"measurement": "No. Cells", "setting": "H9 cells; [12]", "result": "4 × 10^5"}, {"measurement": "No. Cells", "setting": "H9 cells; [13]", "result": "9 × 10^5"}, {"measurement": "No. Cells", "setting": "H9 cells; [14]", "result": "1.3 × 10^6"}, {"measurement": "No. Cells", "setting": "H9 cells; [15]", "result": "2 × 10^6"}, {"measurement": "No. Cells", "setting": "H9 cells; [16]", "result": "4 × 10^5"}, {"measurement": "No. Cells", "setting": "H9 cells; [17]", "result": "7.5 × 10^5"}, {"measurement": "No. Cells", "setting": "H9 cells; [18]", "result": "1.1 × 10^6"}, {"measurement": "No. Cells", "setting": "H9 cells; [19]", "result": "2 × 10^6"}, {"measurement": "RT/Cell", "setting": "[3]; [12]", "result": 36070, "unit": "cpm/10^5 cells"}, {"measurement": "RT/Cell", "setting": "[3]; [13]", "result": 25372, "unit": "cpm/10^5 cells"}, {"measurement": "RT/Cell", "setting": "[3]; [14]", "result": 38594, "unit": "cpm/10^5 cells"}, {"measurement": "RT/Cell", "setting": "[3]; [15]", "result": 37556, "unit": "cpm/10^5 cells"}, {"measurement": "RT/Cell", "setting": "[3]; [16]", "result": 32674, "unit": "cpm/10^5 cells"}, {"measurement": "RT/Cell", "setting": "[3]; [17]", "result": 40057, "unit": "cpm/10^5 cells"}, {"measurement": "RT/Cell", "setting": "[3]; [18]", "result": 45558, "unit": "cpm/10^5 cells"}, {"measurement": "RT/Cell", "setting": "[3]; [19]", "result": 36442, "unit": "cpm/10^5 cells"}, {"measurement": "effect on HIV replication", "setting": "[3]", "result": "do not have any significant effect on HIV replication"}, {"measurement": "effect on HIV replication", "setting": "[3]; listed as m-Amsa", "result": "No effect on HIV replication was observed"}]}]}
